1 molecule from paper PMC3382171 (PLoS ONE, 2012) can be followed below.

Common to all, as to experiment: biochemical
What all share (parameters): University of Dundee kinase panel, percent inhibition of phosphorylation at 1 uM RAFi, ATP at Km
What all share (settings): read-out: Dundee KSS %inh at 1 uM

Assay [1] concerns the target CDK2 (Homo sapiens, UniProt P24941). How it is done:
(§1) The METi and RAFi were screened against kinase panels (SelectScreen, Invitrogen; University of Dundee, Division of Signal Transduction Therapy, UK; Upstate Biotechnology/Millipore, Billerica, MA). In these selectivity assays the concentration of ATP was set to the Km value of ATP for each kinase tested to allow for a relative potency comparison between the various kinases. The compounds were tested at 1 µM final concentration. […] Supplementary file pone.0039653.s002.pdf: Figure S2 Kinase Selectivity Screen of RAFi. (A) Kinase selectivity screen (KSS) performed at University of Dundee (Division of Signal Transduction Therapy). Values in % inhibition of phosphorylation given 1 µM of RAFi compared to control. (B) KSS performed at Invitrogen (Selectscreen Service) compared to control. Values in % inhibition of phosphorylation given 1 µM of RAFi. (C) Cell based dose response kinase inhibition of indicated kinases by RAFi. (PDF) Click here for additional data file.

Assay [2] addresses T1, p38d (Homo sapiens, UniProt O15264).
T1 construct: gene MAPK13
The procedure: as §1

For assay [3], the target named is AKT2 (Homo sapiens, UniProt P31751). How it is done: as §1
In assay [4] the target is T2, MSK1 (Homo sapiens, UniProt O75582).
T2 construct: gene RPS6KA5
How it is done: as §1

Assay [5] addresses MARK3 (Homo sapiens, UniProt P27448). How it is done:
as §1

The target in assay [6] is T3, JNK1a (Homo sapiens, UniProt P45983).
T3 construct: gene MAPK8; isoform alpha
The procedure: as §1

Assay [7] addresses T4, JNK2 (Homo sapiens, UniProt P45984).
T4 construct: gene MAPK9
How it is done: as §1

Assay [8] deals with T5, CAMKKB (Homo sapiens, UniProt Q96RR4).
T5 construct: gene CAMKK2
How it is done:
as §1

Assay [9] deals with CSK (Homo sapiens, UniProt P41240). How it is done:
as §1

In assay [10] the target is T6, CKIIa (Homo sapiens, UniProt P68400).
T6 construct: gene CSNK2A1
The procedure:
as §1

In assay [11] the target is PBK (Homo sapiens, UniProt Q96KB5). How it is done: as §1
In assay [12] the target is T7, MNK1 (Homo sapiens, UniProt Q9BUB5).
T7 construct: gene MKNK1
How it is done: as §1

Assay [13] concerns the target T8, p38g (Homo sapiens, UniProt P53778).
T8 construct: gene MAPK12
How it is done: as §1

Assay [14] concerns the target NEK2 (Homo sapiens, UniProt P51955). The procedure:
as §1

For assay [15], the target named is T9, DYRK2 (Homo sapiens, UniProt Q92630).
T9 sequence (Q92630 1-601): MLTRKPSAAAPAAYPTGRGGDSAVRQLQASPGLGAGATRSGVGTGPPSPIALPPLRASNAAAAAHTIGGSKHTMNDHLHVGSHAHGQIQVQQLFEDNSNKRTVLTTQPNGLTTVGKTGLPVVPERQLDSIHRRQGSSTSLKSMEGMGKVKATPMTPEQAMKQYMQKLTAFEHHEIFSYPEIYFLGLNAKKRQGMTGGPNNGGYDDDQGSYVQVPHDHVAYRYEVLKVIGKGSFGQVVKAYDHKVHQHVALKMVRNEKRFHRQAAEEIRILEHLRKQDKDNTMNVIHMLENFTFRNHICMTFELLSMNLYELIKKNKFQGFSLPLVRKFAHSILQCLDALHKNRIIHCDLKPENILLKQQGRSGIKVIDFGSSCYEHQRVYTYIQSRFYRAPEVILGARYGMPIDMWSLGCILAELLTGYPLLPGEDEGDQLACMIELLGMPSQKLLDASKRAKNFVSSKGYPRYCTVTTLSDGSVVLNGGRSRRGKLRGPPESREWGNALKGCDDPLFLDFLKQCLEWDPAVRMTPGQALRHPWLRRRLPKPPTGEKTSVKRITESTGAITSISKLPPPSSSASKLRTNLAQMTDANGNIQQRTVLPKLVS
The procedure:
as §1

For assay [16], the target named is T10, PRK2 (Homo sapiens, UniProt Q16513).
T10 construct: gene PKN2
How it is done:
as §1

The structures appear in SMILES notation.

T7 sequence (Q9BUB5 whole entry): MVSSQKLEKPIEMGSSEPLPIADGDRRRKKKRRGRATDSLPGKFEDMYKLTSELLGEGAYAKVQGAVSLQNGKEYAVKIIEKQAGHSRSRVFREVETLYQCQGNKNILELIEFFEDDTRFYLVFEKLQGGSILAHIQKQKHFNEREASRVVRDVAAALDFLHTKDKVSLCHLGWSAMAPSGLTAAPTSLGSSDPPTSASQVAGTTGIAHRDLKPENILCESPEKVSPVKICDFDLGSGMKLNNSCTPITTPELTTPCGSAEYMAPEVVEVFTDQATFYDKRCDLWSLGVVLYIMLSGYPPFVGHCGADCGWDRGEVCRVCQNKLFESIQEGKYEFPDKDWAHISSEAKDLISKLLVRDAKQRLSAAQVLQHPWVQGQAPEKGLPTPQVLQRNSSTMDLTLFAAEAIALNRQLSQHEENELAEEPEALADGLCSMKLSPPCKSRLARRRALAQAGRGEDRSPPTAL
T4 sequence (P45984 whole entry): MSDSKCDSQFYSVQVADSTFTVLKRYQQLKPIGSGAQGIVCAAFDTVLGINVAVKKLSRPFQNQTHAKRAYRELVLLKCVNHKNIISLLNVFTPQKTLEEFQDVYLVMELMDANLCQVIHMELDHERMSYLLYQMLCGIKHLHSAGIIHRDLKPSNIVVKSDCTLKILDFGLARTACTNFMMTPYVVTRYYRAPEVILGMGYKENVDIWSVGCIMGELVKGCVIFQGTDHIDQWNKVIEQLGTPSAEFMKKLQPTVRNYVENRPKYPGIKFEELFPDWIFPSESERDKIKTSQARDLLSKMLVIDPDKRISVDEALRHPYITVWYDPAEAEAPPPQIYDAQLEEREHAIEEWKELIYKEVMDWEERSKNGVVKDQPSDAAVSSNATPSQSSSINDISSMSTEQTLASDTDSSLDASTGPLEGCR
Sequence of MARK3 (P27448 whole entry): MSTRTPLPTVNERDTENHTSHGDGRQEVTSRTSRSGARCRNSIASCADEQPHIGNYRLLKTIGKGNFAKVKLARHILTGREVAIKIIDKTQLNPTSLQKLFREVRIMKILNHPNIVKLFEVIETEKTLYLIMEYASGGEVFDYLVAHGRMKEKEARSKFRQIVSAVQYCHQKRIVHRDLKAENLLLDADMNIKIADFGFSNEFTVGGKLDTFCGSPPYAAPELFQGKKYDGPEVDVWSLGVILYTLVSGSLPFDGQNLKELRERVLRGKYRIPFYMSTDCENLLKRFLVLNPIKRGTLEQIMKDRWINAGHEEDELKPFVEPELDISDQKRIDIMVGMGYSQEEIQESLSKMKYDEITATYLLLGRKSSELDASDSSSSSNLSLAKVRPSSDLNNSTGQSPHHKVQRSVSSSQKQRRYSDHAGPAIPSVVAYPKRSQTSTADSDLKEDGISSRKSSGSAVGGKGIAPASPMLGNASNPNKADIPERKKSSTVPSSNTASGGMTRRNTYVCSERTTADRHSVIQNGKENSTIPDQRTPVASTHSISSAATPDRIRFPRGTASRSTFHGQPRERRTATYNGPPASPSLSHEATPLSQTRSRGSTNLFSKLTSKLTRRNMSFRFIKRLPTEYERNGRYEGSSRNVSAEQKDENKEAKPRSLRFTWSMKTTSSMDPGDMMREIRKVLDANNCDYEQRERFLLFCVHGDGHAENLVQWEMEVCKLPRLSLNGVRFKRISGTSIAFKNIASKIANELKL
Sequence of PBK (Q96KB5 whole entry): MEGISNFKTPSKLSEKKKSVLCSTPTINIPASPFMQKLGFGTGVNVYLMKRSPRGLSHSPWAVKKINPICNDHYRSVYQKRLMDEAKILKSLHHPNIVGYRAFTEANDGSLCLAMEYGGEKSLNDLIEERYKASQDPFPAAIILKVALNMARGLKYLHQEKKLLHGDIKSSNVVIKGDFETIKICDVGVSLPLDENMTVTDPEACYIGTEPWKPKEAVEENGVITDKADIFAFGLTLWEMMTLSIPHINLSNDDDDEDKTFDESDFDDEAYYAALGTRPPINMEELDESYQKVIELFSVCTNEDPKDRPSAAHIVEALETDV
T1 sequence (O15264 whole entry): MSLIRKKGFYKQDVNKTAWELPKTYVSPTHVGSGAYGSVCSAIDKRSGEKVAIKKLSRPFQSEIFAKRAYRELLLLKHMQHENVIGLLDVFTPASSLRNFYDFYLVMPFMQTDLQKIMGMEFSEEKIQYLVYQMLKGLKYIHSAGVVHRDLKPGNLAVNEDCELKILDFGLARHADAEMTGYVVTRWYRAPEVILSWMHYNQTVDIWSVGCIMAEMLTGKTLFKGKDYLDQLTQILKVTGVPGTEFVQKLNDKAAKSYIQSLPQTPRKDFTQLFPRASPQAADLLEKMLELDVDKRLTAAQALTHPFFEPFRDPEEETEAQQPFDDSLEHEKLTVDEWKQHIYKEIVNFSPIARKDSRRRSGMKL
T10 sequence (Q16513 whole entry): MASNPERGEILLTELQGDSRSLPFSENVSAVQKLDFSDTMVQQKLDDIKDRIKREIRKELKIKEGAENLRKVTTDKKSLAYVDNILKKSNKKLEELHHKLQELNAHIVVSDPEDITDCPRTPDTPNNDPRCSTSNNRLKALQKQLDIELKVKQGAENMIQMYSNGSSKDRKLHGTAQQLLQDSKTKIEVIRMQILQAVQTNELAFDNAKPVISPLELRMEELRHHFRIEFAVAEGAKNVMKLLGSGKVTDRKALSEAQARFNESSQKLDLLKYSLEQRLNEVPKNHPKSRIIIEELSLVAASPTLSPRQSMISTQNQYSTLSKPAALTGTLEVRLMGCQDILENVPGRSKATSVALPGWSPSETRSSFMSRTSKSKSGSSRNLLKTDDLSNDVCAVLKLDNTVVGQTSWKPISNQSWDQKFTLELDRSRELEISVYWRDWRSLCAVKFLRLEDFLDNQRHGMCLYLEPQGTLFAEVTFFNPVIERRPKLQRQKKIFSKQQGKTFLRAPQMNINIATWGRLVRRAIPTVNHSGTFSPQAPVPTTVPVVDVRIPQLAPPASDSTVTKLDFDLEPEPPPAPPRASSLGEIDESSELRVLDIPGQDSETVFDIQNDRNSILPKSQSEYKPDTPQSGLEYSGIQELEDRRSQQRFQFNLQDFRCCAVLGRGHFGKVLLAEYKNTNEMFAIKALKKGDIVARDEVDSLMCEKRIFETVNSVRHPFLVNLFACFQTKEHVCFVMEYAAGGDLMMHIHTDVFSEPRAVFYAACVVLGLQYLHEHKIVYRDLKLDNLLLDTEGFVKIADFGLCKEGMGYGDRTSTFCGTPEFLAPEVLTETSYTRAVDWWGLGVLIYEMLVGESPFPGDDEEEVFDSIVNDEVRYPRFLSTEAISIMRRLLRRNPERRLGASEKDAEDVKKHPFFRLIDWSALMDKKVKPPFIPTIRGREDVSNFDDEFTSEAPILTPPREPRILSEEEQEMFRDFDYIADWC
T2 sequence (O75582 whole entry): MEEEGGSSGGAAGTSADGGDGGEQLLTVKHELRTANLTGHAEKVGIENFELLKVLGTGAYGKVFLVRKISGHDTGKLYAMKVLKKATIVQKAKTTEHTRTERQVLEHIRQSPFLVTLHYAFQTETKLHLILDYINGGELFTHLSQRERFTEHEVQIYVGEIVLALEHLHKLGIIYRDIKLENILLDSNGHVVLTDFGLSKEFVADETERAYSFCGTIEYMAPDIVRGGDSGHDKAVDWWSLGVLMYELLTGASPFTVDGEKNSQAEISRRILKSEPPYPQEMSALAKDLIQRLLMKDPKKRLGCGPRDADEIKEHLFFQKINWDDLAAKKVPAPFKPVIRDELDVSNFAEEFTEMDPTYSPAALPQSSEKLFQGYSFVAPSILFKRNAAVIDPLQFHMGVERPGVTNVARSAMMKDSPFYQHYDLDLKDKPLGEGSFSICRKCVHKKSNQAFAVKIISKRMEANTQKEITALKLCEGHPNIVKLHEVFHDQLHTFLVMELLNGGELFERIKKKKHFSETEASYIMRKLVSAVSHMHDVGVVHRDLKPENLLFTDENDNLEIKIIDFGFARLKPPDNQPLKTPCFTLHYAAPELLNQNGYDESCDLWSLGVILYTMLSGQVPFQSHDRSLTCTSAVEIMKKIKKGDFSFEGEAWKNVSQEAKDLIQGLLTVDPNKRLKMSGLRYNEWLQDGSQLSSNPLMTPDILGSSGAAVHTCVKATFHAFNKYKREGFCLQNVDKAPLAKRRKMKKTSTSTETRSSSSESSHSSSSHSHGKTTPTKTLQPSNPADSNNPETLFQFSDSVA
Sequence of AKT2 (P31751 whole entry): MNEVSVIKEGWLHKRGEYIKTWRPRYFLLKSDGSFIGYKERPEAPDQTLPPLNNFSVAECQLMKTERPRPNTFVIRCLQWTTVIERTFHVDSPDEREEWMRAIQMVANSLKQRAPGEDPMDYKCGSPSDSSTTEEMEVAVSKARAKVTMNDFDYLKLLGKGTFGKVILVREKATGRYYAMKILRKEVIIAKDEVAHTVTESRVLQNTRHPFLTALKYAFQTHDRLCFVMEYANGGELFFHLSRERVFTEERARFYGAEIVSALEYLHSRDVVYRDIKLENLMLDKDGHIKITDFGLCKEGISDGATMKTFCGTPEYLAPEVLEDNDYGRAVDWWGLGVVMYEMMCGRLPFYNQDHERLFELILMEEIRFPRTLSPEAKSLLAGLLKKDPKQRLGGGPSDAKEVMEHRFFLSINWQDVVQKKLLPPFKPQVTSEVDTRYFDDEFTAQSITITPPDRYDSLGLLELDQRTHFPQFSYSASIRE
T6 sequence (P68400 whole entry): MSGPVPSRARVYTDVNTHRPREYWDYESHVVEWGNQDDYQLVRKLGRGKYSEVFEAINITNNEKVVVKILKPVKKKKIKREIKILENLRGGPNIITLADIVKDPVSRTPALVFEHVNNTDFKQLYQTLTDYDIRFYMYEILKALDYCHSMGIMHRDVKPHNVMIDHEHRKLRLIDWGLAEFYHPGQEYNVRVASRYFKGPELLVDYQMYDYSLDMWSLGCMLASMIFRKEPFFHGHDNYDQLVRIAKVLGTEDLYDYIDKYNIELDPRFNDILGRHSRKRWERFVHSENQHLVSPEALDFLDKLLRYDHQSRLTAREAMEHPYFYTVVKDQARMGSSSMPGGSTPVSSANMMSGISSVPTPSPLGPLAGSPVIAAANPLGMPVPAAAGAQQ

As to `N#CCCNc1nccc(-c2cn(CC(F)F)nc2-c2cnc3[nH]ccc3c2)n1` [RAFi, PF-04880594], the inhibition at 1 µM was found to be 38% in [1]; 9% in assay [2]; 28% in [3]; 14% in assay [4]; 20% in assay [5]; 62% in assay [6]. The inhibition at 1 µM is 95% in [7]; 16% in assay [8]; -4% in assay [9]; -2% in assay [10]; -2% in assay [11]; 7% in assay [12]. Further, the inhibition at 1 µM came to 4% in assay [13], 73% in assay [14], 23% in assay [15] and 16% in assay [16].
